Our source for the IC50 values is patent US20260226493A1, “HERBICIDE RESISTANT PLANTS” (SYNGENTA CROP PROTECTION AG, priority 2023, published 2026).

Experiment [1] concerns the target T1, Arabidopsis thaliana BioDA variant enzymes (Arabidopsis thaliana, UniProt B0F481).
T1 construct: with the predicted N-terminal mitochondrial transit peptide removed; 6xHis-tag (N); thrombin cleavage site (N); made in house; host or cells: E. coli BL21 (DE3) bioA
The experiment can be described thus: biochemical. The procedure:
(§1) These plasmids were then expressed in E. coli BL21 (DE3) bioA with 50 μg/mL kanamycin and 25 μg/mL chloramphenicol selection. Overnight cultures grown at 37° C. were used to inoculate 8×500 mL AIM in shake flasks at a ratio of 1:100. Cultures were grown at 37° C., 200 rpm for 3.5 hours and then overnight at 20° C. Cells were harvested by centrifugation for 30 minutes at 10 000 g. Cells were stored at −80° C. until extraction. 30 g of cell pellet from was thawed in 120 mL of IMAC buffer A (20 mM HEPES pH7.5, 25 mM imidazole, 500 mM sodium chloride, 0.15 mM pyridoxal phosphate, 0.5 mM TCEP, 1× complete Protease Inhibitor Tablet (Roche)). The resuspension was passed through a cell disrupter at 18 000 PSI and centrifuged at 50 000 g for 25 minutes at 4° C. The His-tagged BIO3-BIO1 protein was purified from the extract supernatant on an AKTA avant chromatography system (Cytiva) using a HisTrap FF column and eluted in IMAC buffer B ((20 mM HEPES pH7.5, 500 mM imidazole, 500 mM sodium chloride, 0.15 mM pyridoxal phosphate, 0.5 mM TCEP) followed by SEC using a HiLoad 26/60 Superdex200 column in SEC buffer (25 mM HEPES pH7.5, 150 mM sodium chloride, 0.15 mM pyridoxal phosphate, 0.5 mM TCEP). Protein concentration was measured and calculated using the absorbance at 280 nm. Extracts were diluted 1 in 4 and 10 uL was analysed by SDS PAGE.
(§2) To measure BIO3-BIO1 mutant enzyme activity in the presence of herbicide, herbicides were incubated with 20 μL of enzyme mix (100 mM EPPS pH 8.6, 0.1 mM pyridoxal phosphate, 0.1 mg/mL BSA, 50 nM BIO3-BIO1 enzyme) for 10 minutes at 20° C. in a well of a 96-well half-area black plate, followed by the addition of 20 μL of substrate mix (final concentration of 100 mM EPPS pH 8.6, 0.1 mM pyridoxal phosphate, 0.1 mg/mL BSA, 100 μM spermidine, 20 μM KAPA, 100 mM NaCO3) and further incubation for 75 minutes at 20° C. The reaction was terminated by the addition of 50 μL of derivatisation mix (final concentration of 250 mM borate NaOH pH 9.4, 3.6 mM o-phthalaldehyde, 7 mM β-mercaptoethanol, 17% (v/v) ethanol, 3.6% (v/v) methanol). The fluorescent product produced by the reaction of DAPA with o-phthalaldehyde and 7 mM β-mercaptoethanol was measured at 470 nm after excitation at 410 nm.
(§3) For IC50 calculations, appropriate dose responses of compounds L, M, B, K and G were used. Calculated percentage inhibitions were then input into GraphPad Prism 7 and IC50s calculated using the non-linear regression (vs. normalised response) equation.

Experiment [2] concerns the target T2, Arabidopsis thaliana BioDA variant enzymes (Arabidopsis thaliana, UniProt B0F481, C388D).
T2 construct: with the predicted N-terminal mitochondrial transit peptide removed; 6xHis-tag (N); thrombin cleavage site (N); made in house; host or cells: E. coli BL21 (DE3) bioA
The experiment can be described thus: biochemical. The procedure:
as §1, §2, §3

T2 sequence (B0F481 24-833 C388D): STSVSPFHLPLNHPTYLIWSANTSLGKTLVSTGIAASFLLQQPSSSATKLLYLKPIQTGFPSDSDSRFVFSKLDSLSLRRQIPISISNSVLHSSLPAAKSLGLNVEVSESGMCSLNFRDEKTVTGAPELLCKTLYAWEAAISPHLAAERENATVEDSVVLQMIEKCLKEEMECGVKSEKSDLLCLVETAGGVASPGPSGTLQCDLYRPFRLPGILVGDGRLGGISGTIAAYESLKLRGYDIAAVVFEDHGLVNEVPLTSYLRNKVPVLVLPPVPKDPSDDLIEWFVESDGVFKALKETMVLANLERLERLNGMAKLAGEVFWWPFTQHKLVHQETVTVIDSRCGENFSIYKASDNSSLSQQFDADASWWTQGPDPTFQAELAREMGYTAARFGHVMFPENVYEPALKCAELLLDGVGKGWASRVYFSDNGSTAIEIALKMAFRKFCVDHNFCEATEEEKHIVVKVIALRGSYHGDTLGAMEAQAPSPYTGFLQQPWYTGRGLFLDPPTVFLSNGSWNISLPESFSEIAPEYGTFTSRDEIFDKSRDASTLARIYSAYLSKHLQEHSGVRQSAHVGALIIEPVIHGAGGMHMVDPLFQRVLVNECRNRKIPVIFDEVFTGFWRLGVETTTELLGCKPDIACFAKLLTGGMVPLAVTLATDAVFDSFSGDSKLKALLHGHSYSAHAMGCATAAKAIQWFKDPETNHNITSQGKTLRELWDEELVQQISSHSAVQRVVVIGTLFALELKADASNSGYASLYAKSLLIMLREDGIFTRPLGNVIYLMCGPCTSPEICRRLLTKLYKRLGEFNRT

By IC50 is commonly meant the concentration needed to halve the response being measured. Read a high IC50 as a need for much substance. For the compound `O=C(O)CC1CCC(=O)N1Cc1cccc(F)c1F` (stereo not shown) [Compound G, 2-[1-[(2,3-difluorophenyl)methyl]-5-oxo-pyrrolidin-2-yl]acetic acid], the half-inhibitory concentration (IC50) in experiment [1] turned out to be 89 µM; in experiment [2], 361 µM.

Regarding `O=C(O)CC1CCC(=O)N1Cc1ccc(F)c(F)c1F` (stereo not shown) [Compound K, 2-[5-oxo-1-[(2,3,4-trifluorophenyl)methyl]pyrrolidin-2-yl]acetic acid], the concentration for half-maximal inhibition (IC50) in experiment [1] turned out to be 25 µM; in experiment [2], 386 µM.
